Source: patent US10676436B2, “NLRX1 ligands” (Landos Biopharma, Inc., priority 2018, dated 2020)

Assays:
CD4+ T cells = test: Immunological screening in vitro in CD4+ splenocytes, flow cytometry; type: cell-based, C57BL/6 mice; conditions: for proportion of IFNγ producing (IFNγ+) CD4+ T cells / proportion of TNFα producing (TNFα+) CD4+ T cells: wild-type cells, 48 h, PMA and ionomycin; for size and dose dependence of the effect on TNFα producing and IFNγ producing cells: within the range tested
Text: Spleens were excised from C57BL/6 mice. Spleens were crushed between the frosted ends of microscope slides and filtered to provide a cellular suspension. Red blood cells were lysed through hypotonic lysis. Remaining cells were washed and filtered. CD4+ T cells were enriched within the suspension using magnetic sorting based negative selection. Cells were collected and plated within 96 well plates coated with anti-CD3 and cultured in the presence of NX-13, NX-37, NX-43, NX-44, or NX-50 at 0, 0.1, 1 or 10 micromolar; NX-53, NX-54, NX-55, or NX-56 at 0, 0.1, or 1 micromolar; or NX-45 at 10, 50 or 100 nanomolar for 48 h. During the last 6 h of culture, cells were stimulated with phorbol 12-myristate-13-acetate (PMA) and ionomycin.
Cells were collected from 96 well plates and stained with a cocktail of antibodies for immunophenotyping by flow cytometry. Culture supernatant was collected and assayed for cytokine concentrations by cytometric bead array. Data was captured on a BD FACS Celesta and analyzed using FacsDiva.

Human NLRX1 (NLRX1-WT) = biological target: T1, Human NLRX1 (NLRX1-WT) (Homo sapiens, UniProt Q86UT6); test: Surface plasmon resonance binding to NLRX1-WT
T1 construct: made in house; host or cells: Pichia pastoris
Experimental: (§1) NLRX1 production and purification. Human NLRX1 (www.uniprot.org; UniProtKB—Q86UT6 (NLRX1 HUMAN)) was cloned into E. coli, amplified and transfected in Pichia pastoris. P. pastoris was plated onto adenine selective media. Stable transfected colonies were selected and grown within YPD broth at 30° C. for 24 hours, 240 RPM shaking. Starter culture was used to inoculate base media (1% yeast extract, 2% peptone, 1% sorbitol, 2% yeast nitrogen base) containing biotin and buffered with potassium phosphate. Inoculated base media was incubated for 48 hours at 30° C., 240 RPM. P. pastoris was then pelleted by centrifugation and resuspended in expression media (1% sorbitol, 2% yeast nitrogen base) containing biotin and buffered with potassium phosphate. Culture was induced daily for protein production through addition of methanol and incubated for a total of 4 days at 28° C., 240 RPM. After incubation, cells were pelleted by centrifugation and lysed by sonication. Recombinant NLRX1 protein was purified by fast protein liquid chromatography (AktaPrime) using immobilized metal affinity chromatography. Fractions of protein were eluted in 1 mL aliquots and evaluated for NLRX1 content. A mutated NLRX1 protein was generated using similar methods to disrupt binding within the predicted binding site through altering four residues to alanine (D677A, F680A, F681A, and E684A).
(§2) A Biacore T200 was used to evaluate binding to the NLRX1 protein. NLRX1-WT and NLRX1-Mutant were used as proteins to immobilize onto the CM5 sensor chip. NLRX1-WT was diluted in 10 mM sodium acetate buffer at pH 4.0 and immobilized onto the flow cell to a level of ˜3700 RU, using standard amine coupling chemistry. NLRX1-Mutant was diluted in 10 mM sodium acetate buffer at pH 4.0 and immobilized onto the flow cell to a level of ˜3100 RU, using standard amine coupling chemistry. 20 mM MOPS, 150 mM NaCl, 5 mM sodium acetate, 1 mM EDTA, 0.05% Tween-20, pH 8.0 buffer (Running buffer) was used as the immobilization running buffer. Based on the immobilized response values, theoretical Rmax values were calculated. The Rmax values assume 1:1 interaction mechanism. Overnight kinetics were performed for all analytes binding to the immobilized proteins. The kinetics experiments were performed in the μL/min. presence of running buffer+1% DMSO. The flow rate of all solutions was maintained at 50 Analyte concentrations were 0 μM, 2.5 μM, 5 μM 10 μM 20 μM and 40 μM.

[1] = biological target: T2, mutated NLRX1 protein (D677A, F680A, F681A, E684A) (Homo sapiens, UniProt Q86UT6, D677A/E684A/F680A/F681A); test: Surface plasmon resonance binding to NLRX1-Mutant
T2 construct: made in house; host or cells: Pichia pastoris (by 'similar methods')
Experimental: as §1
as §2, with “The Rmax values assume 1:1 interaction mechanism. Overnight kinetics were performed for all analytes binding to the immobilized proteins. The kinetics experiments were performed in the μL/min. presence of running buffer+1% DMSO. The flow rate of all solutions was maintained at 50 Analyte concentrations were 0 μM, 2.5 μM, 5 μM 10 μM 20 μM and 40 μM.” left out

[2] = biological target: T3, NLRX1 (C terminus, pdb: 3UN9) (Homo sapiens, UniProt Q86UT6); conditions: low affinity NLRX1 ligand, published value; cited from earlier work
T3 construct: the published structure for the C terminus of NLRX1 (pdb: 3UN9)

CT26 carcinoma cells = test: CT26 injected solid tumor model; type: in vivo, BALB/c mice
Experimental: (§3) Adult BALB/c mice were injected with 5×10^6 CT26 carcinoma cells subcutaneously in the hind flank. Mice were treated daily with NX-43 at 40 mg/kg via gavage beginning on day 9. Mice were weighed daily, and tumor diameter was measured every 3 days up to day 21. Tumors were collected at weighed at necropsy. A second mouse model was used. APC^min/+ mice were administered DSS in drinking water beginning at 5 weeks of age. Mice were challenged with DSS for a total of 5 days prior to return of standard drinking water. After DSS, mice were treated with NX-43 (40 mg/kg) by oral gavage for four weeks. After four weeks, colons were excised and washed. Number of polyps were counted, and colon weights were obtained.
Total RNA from tumors and lymph nodes can be generated using the Qiagen RNeasy mini kit. cDNA can be generated using the BioRad iScript cDNA synthesis kit. Standard curves can be generated by serial dilution of purified product from a standard PCR reaction with Taq DNA polymerase followed by purification using the Qiagen MinElute PCR purification kit. Expression levels can be obtained from quantitative real-time PCR with SybrGreen supermix on a BioRad CFX96 Thermal cycler followed by normalization to expression of β-actin. Gene expression can be measured for genes marking immune activation such as inflammatory cytokines or surface receptors, immune suppression such as CTLA-4, PD-1, or ARG-1, and tumor growth and metastasis.
H&E stained tumor and lymph node sections can be prepared from tissue collected into 10% buffered formalin and embedded in paraffin. Slides can be examined by a board-certified veterinary pathologist via an Olympus microscope and images will be collected with Image-Pro software. Samples can be scored and evaluated for presence of tumor infiltrating leukocytes, areas of necrosis and proportion of proliferating tumor cells.
Tumors and lymph nodes can be collected into RPMI/FBS buffer containing collagenase (300 U/mL) and DNase (50 U/mL) for digestion. Tissues can be digested for 60 minutes under stirring at 37° C. […]

[3] = system: APC^min/+ model of colorectal cancer; test: APCmin/+ model of colorectal cancer; type: in vivo, mice; conditions: 40 mg/kg oral, four weeks
Experimental: as §3

[4] = tested at 10, 50 and 100 nanomolar

T1 sequence (Q86UT6 87-975): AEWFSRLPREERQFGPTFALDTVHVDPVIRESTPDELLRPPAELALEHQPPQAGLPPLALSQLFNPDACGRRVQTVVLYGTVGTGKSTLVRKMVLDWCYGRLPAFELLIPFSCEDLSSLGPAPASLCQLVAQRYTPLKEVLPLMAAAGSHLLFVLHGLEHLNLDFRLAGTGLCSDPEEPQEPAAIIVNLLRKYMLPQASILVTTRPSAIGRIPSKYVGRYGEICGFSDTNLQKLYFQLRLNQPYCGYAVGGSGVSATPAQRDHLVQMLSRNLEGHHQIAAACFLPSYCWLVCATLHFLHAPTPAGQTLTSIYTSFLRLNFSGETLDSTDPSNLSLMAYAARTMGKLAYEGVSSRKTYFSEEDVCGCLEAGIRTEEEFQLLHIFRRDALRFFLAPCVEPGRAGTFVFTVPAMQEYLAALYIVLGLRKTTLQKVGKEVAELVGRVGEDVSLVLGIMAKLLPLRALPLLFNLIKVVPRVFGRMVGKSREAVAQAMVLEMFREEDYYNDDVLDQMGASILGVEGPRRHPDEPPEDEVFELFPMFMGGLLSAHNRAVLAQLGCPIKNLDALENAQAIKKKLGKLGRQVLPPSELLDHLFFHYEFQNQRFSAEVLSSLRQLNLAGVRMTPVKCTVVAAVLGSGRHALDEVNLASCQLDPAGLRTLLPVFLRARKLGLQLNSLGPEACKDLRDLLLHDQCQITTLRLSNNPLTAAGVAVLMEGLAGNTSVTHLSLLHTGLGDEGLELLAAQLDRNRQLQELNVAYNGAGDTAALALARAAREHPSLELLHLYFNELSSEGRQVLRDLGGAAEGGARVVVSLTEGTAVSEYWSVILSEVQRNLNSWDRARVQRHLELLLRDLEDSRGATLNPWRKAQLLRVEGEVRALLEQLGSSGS
T2 sequence (Q86UT6 87-975 D677A/F680A/F681A/E684A): as the sequence (Q86UT6 87-975) above, with D591A, F594A, F595A, E598A counted along it
T3 sequence (Q86UT6 629-975 limits assumed): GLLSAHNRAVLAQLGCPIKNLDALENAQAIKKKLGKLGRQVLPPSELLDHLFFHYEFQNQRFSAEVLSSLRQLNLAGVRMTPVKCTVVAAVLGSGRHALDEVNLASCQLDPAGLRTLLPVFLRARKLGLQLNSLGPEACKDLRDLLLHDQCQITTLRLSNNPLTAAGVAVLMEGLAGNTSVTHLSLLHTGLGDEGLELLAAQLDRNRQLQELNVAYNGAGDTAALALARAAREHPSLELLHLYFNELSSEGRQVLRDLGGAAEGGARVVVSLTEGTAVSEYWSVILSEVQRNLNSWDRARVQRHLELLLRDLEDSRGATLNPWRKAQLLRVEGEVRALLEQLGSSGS

| Structure (SMILES) | proportion of IFNγ producing (IFNγ+) CD4+ T cells (CD4+ T cells) | function at NLRX1 concluded from the cytokine results (CD4+ T cells) | proportion of TNFα producing (TNFα+) CD4+ T cells (CD4+ T cells) | further results |
| --- | --- | --- | --- | --- |
| Cc1cccc(Oc2cc(Oc3ccccc3)cc(Oc3cccc(C)n3)c2)n1 [NX-53, 2,2′-(5-phenoxy-1,3-phenylene)bis(oxy)bis(6-methylpyridine)] | weakly increased | – | – | – |
| Cc1cccc(Oc2cc(Oc3cccc(C)n3)cc(Oc3nc(C)cc(C)n3)c2)n1 [NX-37, 2-(3,5-bis(6-methylpyridin-2-yloxy)phenoxy)-4,6-dimethylpyrimidine] | increased | specific inhibitors of NLRX1 | increased | binding to NLRX1 by surface plasmon resonance (in words) (Human NLRX1 (NLRX1-WT)): bind to NLRX1; binding to the mutated NLRX1 protein [1]: Loss of binding; change in IL-10 producing cells (CD4+ T cells): Neither small molecule elicited a change; size and dose dependence of the effect on TNFα producing and IFNγ producing cells (CD4+ T cells): dose-dependent effects |
| Cc1cc(N)cnc1Oc1cc(Oc2ncc(N)cc2C)cc(Oc2ncc(N)cc2C)c1 [NX-45, 6,6′,6″-(benzene-1,3,5-triyltris(oxy))tris(5-methylpyridin-3-amine)] | reduces | activators of NLRX1 | reduces | concentrations at which the significant reduction in IFNγ+ cells occurs (CD4+ T cells; [4]): ≥ 50 nM; concentrations at which the significant reduction in TNFα+ cells occurs (CD4+ T cells; [4]): ≥ 10 nM |
| Cc1cc(O)cnc1Oc1cc(Oc2ccccc2)cc(Oc2ncc(O)cc2C)c1 [NX-44, 6,6′-(5-phenoxy-1,3-phenylene)bis(oxy)bis(5-methyl-3-pyridinol)] | increased | specific inhibitors of NLRX1 | increased | – |
| Cc1cccnc1Oc1cc(Oc2ncccc2C)cc(Oc2ncccc2C)c1 [NX-50, 1,3,5-tris (3-methylpyridin-2-yloxy)benzene] | decreased | activators of NLRX1 | decreased | – |
| Cc1cccc(Oc2cc(Oc3ccccn3)cc(Oc3cccc(C)n3)c2)n1 [NX-54, 2,2′-(5-(pyridin-2-yloxy)-1,3-phenylene)bis(oxy)bis(6-methylpyridine)] | minimal effects at high concentrations | – | – | – |
| CCCC\C=C/C=C/C=C\CCCCCCCC(=O)O [punicic acid] | – | – | – | published binding affinity to NLRX1 [2]: -6.2 kcal/mol |
| Cc1cccc(Oc2cc(Oc3cccc(C)n3)cc(Oc3ccccc3O)c2)n1 [NX-56, 2,2′-(5-(phen-6-ol)oxy-1,3-phenylene)bis(oxy)bis(6-methylpyridine)] | weakly increased | – | – | – |
| Cc1cccc(Oc2cc(Oc3cccc(C)n3)cc(Oc3ccccc3C)c2)n1 [NX-55, 2,2′-(5-(6-methylphenoxy)-1,3-phenylene)bis(oxy)bis(6-methylpyridine)] | only a small decrease | – | – | – |
| Cc1cccnc1Oc1cc(Oc2ccccc2)cc(Oc2ncccc2C)c1 [NX-43, 2,2′-(5-phenoxy-1,3-phenylene)bis(oxy)bis(3-methylpyridine)] | increased | specific inhibitors of NLRX1 | increased | binding to NLRX1 by surface plasmon resonance (in words) (Human NLRX1 (NLRX1-WT)): bind to NLRX1; binding to the mutated NLRX1 protein [1]: Loss of binding; change in IL-10 producing cells (CD4+ T cells): Neither small molecule elicited a change; size and dose dependence of the effect on TNFα producing and IFNγ producing cells (CD4+ T cells): greater effect than NX-37; time after initiation of treatment at which reduction in tumor diameter was observed (CT26 carcinoma cells; 40 mg/kg daily via gavage): less than 10 days; tumor size relative to untreated controls (CT26 carcinoma cells; 40 mg/kg daily via gavage beginning on day 9): reduce; reduction of overall tumor mass (CT26 carcinoma cells; after 12 days of treatment, 40 mg/kg): over 70%; overall tumor burden (as evidenced by the colon weight) [3]: reduced; number of colonic polyps ([3]; post-inflammation treatment): reduced |
